Square brackets hold non-standard residues; d marks the D form. Ends that are not written are not given here. Peptide text beside a SMILES is read from it. Dmt = Cc1cc(O)cc(C)c1C[C@H](N)C(=O)O
What was measured:
[1] = biological target: mu-opioid receptor (Homo sapiens, UniProt P35372); settings: stated without data; assays cited; cited from earlier work
[2] = system: several mammalian cell types; settings: energy-independent manner (Zhao et al., 2003); cited from earlier work
[3] = in vivo
Experimental: Six weeks after induction of RAS, animals were similarly anesthetized, the degree of stenosis determined by angiography, and subjects were treated with PTRA or sham. Heating pads maintained the animal's body temperature by about 37° C. during surgery, and PTRA and stenting performed under fluoroscopic guidance, as previously described. In addition, ARAS subjects were treated with a continuous intravenous infusion of peptide 0.050 mg/kg or an equal volume of saline vehicle from 30 min before to 3.5 hrs after PTRA or sham. […] Urinary samples were collected before peptide infusion and 210 min after PTRA.
4 mL venous whole blood samples were collected from peptide-treated animals at baseline (immediately before peptide infusion), immediately before PTRA, and 30 and 180 min post-reperfusion. Venous blood were drawn using syringes into BD Vacutainer® PST™ Plasma Separation Tubes (lavender top) containing K2EDTA, 10 mL/tube. Tubes were gently inverted 8 times and kept in an ice water bath until centrifugation. Within an hour samples were centrifuged in a swing bucket centrifuge at 1000-1300 RCF (or […]) for 15 min at 4° C. Plasma were harvested from individual blood tubes, placed in a single polypropylene vials (or screw-cap tubes) and stored at approximately −80° C. until assay.
The plasma concentration of D-Arg-2′,6′-Dmt-Lys-Phe-NH2 was determined using a qualified LC/MS/MS assay in K2-EDTA pig plasma. The assay employed deuterium labeled d5-D-Arg-2′,6′-Dmt-Lys-Phe-NH2 as the analytical internal standard (IS). […] Positive (M+2H)^2+ ions for D-Arg-2′,6′-Dmt-Lys-Phe-NH2 and the IS (d5-D-Arg-2′,6′-Dmt-Lys-Phe-NH2) were monitored in MRM mode. Drug-to-IS peak area ratios for the standards were used to create a linear calibration curve ranging from 2.5 to 1000 ng/mL.
Peptide IV infusion started at 30 minutes prior to the PTRA procedure and continued for 210 minutes at 0.05 mg/kg/h.

[4] = system: inner mitochondrial membrane; settings: cited from earlier work

Sequence of mu-opioid receptor (P35372 whole entry, species assumed): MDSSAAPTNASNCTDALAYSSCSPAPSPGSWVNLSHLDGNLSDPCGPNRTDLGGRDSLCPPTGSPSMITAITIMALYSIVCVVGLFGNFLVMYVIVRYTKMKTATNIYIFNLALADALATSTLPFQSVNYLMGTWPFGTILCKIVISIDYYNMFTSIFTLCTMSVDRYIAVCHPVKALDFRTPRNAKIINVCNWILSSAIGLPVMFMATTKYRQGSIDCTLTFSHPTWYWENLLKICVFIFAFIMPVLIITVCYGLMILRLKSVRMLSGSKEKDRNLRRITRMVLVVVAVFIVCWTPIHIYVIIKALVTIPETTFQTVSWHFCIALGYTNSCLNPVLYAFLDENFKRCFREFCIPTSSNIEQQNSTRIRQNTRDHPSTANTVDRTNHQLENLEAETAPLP

## Tyr-D-Arg-Phe-Lys-NH2
[1]
  mu-opioid receptor agonist activity: has mu-opioid receptor agonist activity

## 2′,6′-Dmt-D-Arg-Phe-Lys-NH2
[2]
  penetration of the plasma membrane: readily penetrates

## F[dR]FK-NH2
[1]
  mu-opioid receptor agonist activity: does not have mu-opioid receptor agonist activity

## Cc1cc(O)cc(C)c1C[C@H](NC(=O)[C@H](N)CCCNC(=N)N)C(=O)N[C@@H](CCCCN)C(=O)N[C@@H](Cc1ccccc1)C(N)=O [D-Arg-2′,6′-Dmt-Lys-Phe-NH2] (H-[dR][Dmt]KF-NH2)
[3]; 0 min from peptide infusion (−30 min from PTRA), 3.5-h IV infusion 0.05 mg/kg/h
  Mean peptide Concentration: BQL
[3]; 30 min from peptide infusion (time of PTRA), IV infusion 0.05 mg/kg/h
  Mean peptide Concentration: 100.6 ± 36.2 ng/mL
[3]; 30 min from peptide infusion (time of PTRA), IV infusion 0.05 mg/kg/h, listed as Peptide
  Mean peptide Concentration: 100.6 ng/mL
[3]; pig, plasma, iv, 0.05 mg/kg/h, Mean peptide Concentration, 30 min from peptide infusion (time of PTRA), IV infusion 0.05 mg/kg/h
  level at 0.5 h: ~100 ng/mL
[3]; pig, plasma, iv, 0.05 mg/kg/h, Mean peptide Concentration, 60 min from peptide infusion (30 min from PTRA), IV infusion 0.05 mg/kg/h
  level at 1 h: 118 ± 23.7 ng/mL
[3]; pig, plasma, iv, 0.05 mg/kg/h, Mean peptide Concentration, 90 min from peptide infusion (60 min from PTRA), IV infusion 0.05 mg/kg/h
  level at 1.5 h: 125 ± 21.4 ng/mL
[3]; pig, plasma, iv, 0.05 mg/kg/h, Mean peptide Concentration, 210 min from peptide infusion (180 min from PTRA), IV infusion 0.05 mg/kg/h
  level at 3.5 h: 111 ± 42 ng/mL
[3]; post start of IV infusion
  time to apparent steady state concentration: 60 to 90 min
[4]
  concentration in the inner mitochondrial membrane: 500-5000 fold

Source: patent US11420998B2, “Aromatic-cationic peptides and methods for using same” (Stealth Biotherapeutics Inc., priority 2011, dated 2022)
